Assay results as given in patent publication US11952371B1, “2-[(1,3-benzoxazol-2-yl)imino]-5,5-diphenylimidazolidin-4-one as an antimicrobial compound” (KING FAISAL UNIVERSITY, priority 2023, dated 2024).

Assays:
Staphylococcus aureus = experiment: Agar plate disc-diffusion, antibacterial activity; type: cell-based
Description: (§1) The agar plate disc-diffusion method was applied. […] The discs were then placed onto the surface of agar plates (nutrient agar for bacteria and Sabouraud's dextrose agar for fungi) seeded with the test organism. Each plate contained 15 mL of the agar medium, previously seeded with 0.2 mL of the broth culture of each organism pregrown for 18 hours. The plates were incubated at 37° C. for 48 hours, and 72 hours for fungi. The inhibition zones were measured in millimeter. Discs impregnated with DMSO were used as a control, and its inhibition zone was subtracted from the tested compound actual inhibition zone.
(§2) The results of the antimicrobial testing can be observed in Tables 1 and 2, below, with ciprofloxacin serving as a reference.

Escherichia coli = experiment: Agar plate disc-diffusion, antibacterial activity; type: cell-based
Description: as §1, §2

Bacillus cereus = experiment: Agar plate disc-diffusion, antibacterial activity; type: cell-based
Description: as §1, §2

Pseudomonas aeruginosa = experiment: Agar plate disc-diffusion, antibacterial activity; type: cell-based
Description: as §1, §2

[1] = system: Chrysosporium keratinophilum; experiment: Agar plate disc-diffusion, antifungal activity; type: cell-based
Description: as §1, §2

Aspergillus flavus = experiment: Agar plate disc-diffusion, antifungal activity; type: cell-based
Description: as §1, §2

[2] = A = concentration of comp. = 10,000 μL
[3] = B = concentration of comp. = 30,000 μL
[4] = C = concentration of comp. = 50,000 μL

Row | SMILES | inhibition zone (Staphylococcus aureus; [2]) | inhibition zone (Staphylococcus aureus; [3]) | inhibition zone (Staphylococcus aureus; [4]) | inhibition zone (Escherichia coli; [2]) | inhibition zone (Escherichia coli; [3]) | inhibition zone (Escherichia coli; [4]) | inhibition zone (Bacillus cereus; [2]) | inhibition zone (Bacillus cereus; [3]) | inhibition zone (Bacillus cereus; [4]) | inhibition zone (Pseudomonas aeruginosa; [2]) | inhibition zone (Pseudomonas aeruginosa; [3]) | inhibition zone (Pseudomonas aeruginosa; [4]) | melting point | inhibition zone [1, 2] | inhibition zone [1, 3] | inhibition zone [1, 4] | inhibition zone (Aspergillus flavus; [2]) | inhibition zone (Aspergillus flavus; [3]) | inhibition zone (Aspergillus flavus; [4])
1 | O=C1N/C(=N/c2nc3ccccc3o2)NC1(c1ccccc1)c1ccccc1 [compound 3, 2-[(1,3-benzoxazol-2-yl)imino]-5,5-diphenylimidazolidin-4-one] | 16 millimeter | 19 millimeter | 23 millimeter | 25 millimeter | 33 millimeter | 39 millimeter | 27 millimeter | 30 millimeter | 42 millimeter | 26 millimeter | 30 millimeter | 48 millimeter | 234 to 236 °C | 22 millimeter | 25 millimeter | 47 millimeter | 19 millimeter | 23 millimeter | 37 millimeter
2 | O=C(O)c1cn(C2CC2)c2cc(N3CCNCC3)c(F)cc2c1=O [Cip., ciprofloxacin, reference compound] | 42 millimeter | 44 millimeter | 53 millimeter | 30 millimeter | 39 millimeter | 60 millimeter | 29 millimeter | 31 millimeter | 42 millimeter | 29 millimeter | 30 millimeter | 53 millimeter | – | 29 millimeter | 30 millimeter | 53 millimeter | 29 millimeter | 30 millimeter | 42 millimeter
